Assay results as given in patent US9555053B2, “Use of oligosaccharide compounds for the prevention and treatment of pathological scars” (LABORATOIRES URGO, priority 2011, dated 2017).

Key:
Assay type in all cases: cell-based
[1] = system: normal human dermal fibroblasts (NHDFs); assay: Differentiation of fibroblasts into myofibroblasts: α-SMA immunofluorescence and counting of differentiated cells; settings: NHDF cultures, TGF-β 10 ng/ml, KSOS 2 mg/ml, 4 days of culture
Protocol: (§1) Cultures of normal human dermal fibroblasts (NHDFs) were prepared in DMEM/F12 culture medium (sold by the company Invitrogen) supplemented with 10% of fetal calf serum (sold by the company Invitrogen), with 5 μg/ml of insulin (sold by the company Promokine) and with 1 ng/ml of bFGF (sold by the company Promokine).
(§2) For this, the NHDF cultures were placed in a P100 dish coated with collagen at 5 μg/ml in DMEM/F12 medium supplemented with 10% of fetal calf serum and supplemented with 10 ng/ml of TGF-β(sold by the company Promocell), which is a growth factor that controls cell proliferation and differentiation (differentiated control in FIG. 1).
(§3) A nondifferentiated control was also prepared using cultures in DMEM/F12 supplemented with 10% calf serum without TGF-β.
(§4) The KSOS was added to the control and differentiated-control cultures to determine its effect on differentiation, in a proportion of 2 mg/ml.
(§5) The results were analyzed after 4 days of culture.
The cells were fixed with 4% formaldehyde and permeabilized with Triton. The immunolabeling is carried out using DAPI staining (which gives a blue color) for the cell nuclei, a rabbit anti-α-SMA antibody and an anti-rabbit secondary antibody coupled to Cys3 (sold by Promega).
The number of differentiated cells over the total number of cells is determined by cell counting. […]

[2] = system: α-SMA expression in normal human dermal fibroblasts (NHDFs); assay: Inhibition of TGF-β-induced differentiation of fibroblasts into myofibroblasts: α-SMA expression by quantitative RT-PCR and Western blot; settings: NHDF cultures, TGF-β 10 ng/ml, KSOS 2 mg/ml, D4
Protocol: as §1, §2, §3, §4, §5
For the measurement of the inhibitory effect of the compound according to the invention, KSOS was added at 2 mg/ml to the cultures undergoing differentiation. • By quantitative RT-PCR: the mRNA was extracted using the Trizol, chloroform and isopropanol method. • By the Western blot method: total cell extracts were prepared and a Western blot was carried out. […]

[3] = system: collagen lattices seeded with normal human dermal fibroblasts (NHDFs); assay: Collagen lattice retraction (area of collagen lattices seeded with NHDFs); settings: for % relative to the control: lattice area relative to control without dressing
Protocol: The collagen lattices were obtained by seeding 0.8×10^6 normal human dermal fibroblasts (NHDFs) in a gel of collagen type I with a final concentration of 1.3 mg/ml.
A dressing (sold under the trade name Urgotul Start) comprising 7.5% of the potassium salt of sucrose octasulfate was applied to the surface of the collagen lattices.
A control series, without dressing, was carried out in order to evaluate the normal contraction of the collagen gel by the seeded NHDFs.
Likewise, a positive control was carried out by adding TGF-β at a concentration of 10 ng/ml in order to visualize the strong contraction induced by the NHDFs highly differentiated into myofibroblasts.
The incubation was maintained up to 7 days.
The effects of the potassium salt of sucrose octasulfate on the retraction of the collagen lattices was observed by means of photographic analysis (FIG. 2) and image analysis measurement of the area of the lattices once contracted.

| Compound | differentiation of fibroblasts into myofibroblasts (differentiated cells expressing α-SMA, immunofluorescence) [1] | α-SMA expression (mRNA by quantitative RT-PCR, protein by Western blot) [2] | contraction of the collagen lattices (in words) ([3]; between day 1 and day 7) | Average of the areas ([3]; Day 1) | % relative to the control ([3]; Day 1) | Average of the areas ([3]; Day 4) | % relative to the control ([3]; Day 4) | Average of the areas ([3]; Day 7) | % relative to the control ([3]; Day 7) |
| --- | --- | --- | --- | --- | --- | --- | --- | --- | --- |
| O=S(=O)([O-])OC[C@H]1O[C@@](COS(=O)(=O)[O-])(O[C@H]2O[C@H](COS(=O)(=O)[O-])[C@@H](OS(=O)(=O)[O-])[C@H](OS(=O)(=O)[O-])[C@H]2OS(=O)(=O)[O-])[C@@H](OS(=O)(=O)[O-])[C@@H]1OS(=O)(=O)[O-].[K+].[K+].[K+].[K+].[K+].[K+].[K+].[K+] [KSOS, potassium salt of sucrose octasulfate] | inhibition of the differentiation | inhibition of this induction | limits the contraction of the collagen lattices | – | – | – | – | – | – |
| TGF-β | – | induction of α-SMA expression | – | 217.3 mm^2 | 95% | 145.9 mm^2 | 76% | 97 mm^2 | 56% |
